Laboratory results as given in US11760741B2, “Pro-drugs of eliglustat” (KASHIV BIOSCIENCES, LLC, priority 2018, dated 2023).
Where a name gives a salt, the structure may show the parent alone.

Assay: not given
Conditions: human, microsomes

Compound | HLM stability (half-life, minutes) [min]
CCCCCCCC(=O)N[C@H](CN1CCCC1)[C@H](OC(=O)c1ccccc1)c1ccc2c(c1)OCCO2 [I-a Hemitartrate salt, (1R,2R)-1-(2,3-dihydrobenzo[b][1,4]dioxin-6-yl)-2-octanamido-3-(pyrrolidin-1-yl)propyl benzoate] | <30
CCCCCCCC(=O)N[C@H](CN1CCCC1)[C@H](OC(C)=O)c1ccc2c(c1)OCCO2 [I-e Hemitartrate salt, (1R,2R)-1-(2,3-dihydrobenzo[b][1,4]dioxin-6-yl)-2-octanamido-3-(pyrrolidin-1-yl)propyl acetate] | <30
CCCCCCCC(=O)N[C@H](CN1CCCC1)[C@H](OC(=O)CC)c1ccc2c(c1)OCCO2 [I-f Hemitartrate salt, (1R,2R)-1-(2,3-dihydrobenzo[b][1,4]dioxin-6-yl)-2-octanamido-3-(pyrrolidin-1-yl)propyl propionate] | <30

Assay: in vitro
Conditions: human, microsomes, pH 7.4

Compound | half-life [min]
CCCCCCCC(=O)N[C@H](CN1CCCC1)[C@H](OC(=O)Cc1ccccc1)c1ccc2c(c1)OCCO2 [I-b Hemitartrate salt, (1R,2R)-1-(2,3-dihydrobenzo[b][1,4]dioxin-6-yl)-2-octanamido-3-(pyrrolidin-1-yl)propyl 2-phenylacetate] | < 30
CCCCCCCC(=O)N[C@H](CN1CCCC1)[C@H](OC(=O)c1ccccc1N)c1ccc2c(c1)OCCO2 [I-v, (1R,2R)-1-(2,3-dihydrobenzo[b][1,4]dioxin-6-yl)-2-octanamido-3-(pyrrolidin-1-yl)propyl 2-aminobenzoate] | < 30

Assay: Metabolic stability of prodrugs in human liver microsomes
Conditions: pH 7.4

Compound | half-life [min]
CCCCCCCC(=O)N[C@H](CN1CCCC1)[C@H](O)c1ccc2c(c1)OCCO2 [Eliglustat, N-((1R, 2R)-1-(2,3-dihydrobenzo[b] [1,4]dioxin-6-yl)-1-hydroxy-3-(pyrrolidin-1-yl)propan-2-yl) octanamide] | 30
CCCCCCCC(=O)N[C@H](CN1CCCC1)[C@H](OC(=O)CCCCC)c1ccc2c(c1)OCCO2 [I-aa, (1R,2R)-1-(2,3-dihydrobenzo[b][1,4]dioxin-6-yl)-2-octanamido-3-(pyrrolidin-1-yl)propyl hexanoate] | < 30
CCCCCCCC(=O)N[C@H](CN1CCCC1)[C@H](OC(=O)c1cccnc1)c1ccc2c(c1)OCCO2 [I-c Hemitartrate salt, (1R,2R)-1-(2,3-dihydrobenzo[b][1,4]dioxin-6-yl)-2-octanamido-3-(pyrrolidin-1-yl)propyl nicotinate] | < 30
CCCCCCCC(=O)N[C@H](CN1CCCC1)[C@H](OC(=O)c1ccccc1O)c1ccc2c(c1)OCCO2 [I-d Hemitartrate salt, (1R,2R)-1-(2,3-dihydrobenzo[b][1,4]dioxin-6-yl)-2-octanamido-3-(pyrrolidin-1-yl)propyl 2-hydroxybenzoate] | < 30
CCCCCCCC(=O)N[C@H](CN1CCCC1)[C@H](OC(=O)C(C)C)c1ccc2c(c1)OCCO2 [I-g Hemitartrate salt, (1R,2R)-1-(2,3-dihydrobenzo[b][1,4]dioxin-6-yl)-2-octanamido-3-(pyrrolidin-1-yl)propyl isobutyrate] | < 30
CCCCCCCC(=O)N[C@H](CN1CCCC1)[C@H](OC(=O)C(C)(C)C)c1ccc2c(c1)OCCO2 [I-h Hemitartrate salt, (1R,2R)-1-(2,3-dihydrobenzo[b][1,4]dioxin-6-yl)-2-octanamido-3-(pyrrolidin-1-yl)propyl pivalate] | < 30
CCCCCCCC(=O)N[C@H](CN1CCCC1)[C@H](OC(=O)CCCCCCC)c1ccc2c(c1)OCCO2 [I-i Hemitartrate salt, (1R,2R)-1-(2,3-dihydrobenzo[b][1,4]dioxin-6-yl)-2-octanamido-3-(pyrrolidin-1-yl)propyl octanoate] | < 30
CCCCCCCCCC(=O)O[C@H](c1ccc2c(c1)OCCO2)[C@@H](CN1CCCC1)NC(=O)CCCCCCC [I-j Hemitartrate salt, (1R,2R)-1-(2,3-dihydrobenzo[b][1,4]dioxin-6-yl)-2-octanamido-3-(pyrrolidin-1-yl)propyl decanoate] | 63
CCCCCCCCCCCC(=O)O[C@H](c1ccc2c(c1)OCCO2)[C@@H](CN1CCCC1)NC(=O)CCCCCCC [I-k Hemitartrate salt, (1R,2R)-1-(2,3-dihydrobenzo[b][1,4]dioxin-6-yl)-2-octanamido-3-(pyrrolidin-1-yl)propyl dodecanoate] | 70
CCCCCCCC(=O)N[C@H](CN1CCCC1)[C@H](OC(=O)[C@H](N)C(C)C)c1ccc2c(c1)OCCO2 [I-l Hydrochloride salt] | < 30
CCCCCCCC(=O)N[C@H](CN1CCCC1)[C@H](OC(=O)[C@@H](N)C(C)C)c1ccc2c(c1)OCCO2 [I-m Hemitartrate salt] | < 30
CCCCCCCC(=O)N[C@H](CN1CCCC1)[C@H](OC(=O)N(CC)CC)c1ccc2c(c1)OCCO2 [I-n Hemitartrate salt, (1R,2R)-1-(2,3-dihydrobenzo[b][1,4]dioxin-6-yl)-2-octanamido-3-(pyrrolidin-1-yl)propyl diethylcarbamate] | < 30
CCCCCCCC(=O)N[C@H](CN1CCCC1)[C@H](OC(=O)CCC(=O)O)c1ccc2c(c1)OCCO2 [I-o, 4-((1R,2R)-1-(2,3-dihydrobenzo[b][1,4]dioxin-6-yl)-2-octanamido-3-(pyrrolidin-1-yl)propoxy)-4-oxobutanoic acid] | > 90
CCCCCCCC(=O)N[C@H](CN1CCCC1)[C@H](OC(=O)OCC)c1ccc2c(c1)OCCO2 [I-p Hemitartrate salt, (1R,2R)-1-(2,3-dihydrobenzo[b][1,4]dioxin-6-yl)-2-octanamido-3-(pyrrolidin-1-yl)propyl ethyl carbonate] | < 30
CCCCCCCC(=O)N[C@H](CN1CCCC1)[C@H](OC(=O)N1CCC(N2CCCCC2)CC1)c1ccc2c(c1)OCCO2 [I-q, (1R,2R)-1-(2,3-dihydrobenzo[b][1,4]dioxin-6-yl)-2-octanamido-3-(pyrrolidin-1-yl)propyl [1,4′-bipiperidine]-1′-carboxylate] | < 30
CCCCCCCC(=O)N[C@H](CN1CCCC1)[C@H](OC(=O)N(C)C)c1ccc2c(c1)OCCO2 [I-r, (1R,2R)-1-(2,3-dihydrobenzo[b][1,4]dioxin-6-yl)-2-octanamido-3-(pyrrolidin-1-yl)propyl dimethylcarbamate] | < 30
CCCCCCCC(=O)N[C@H](CN1CCCC1)[C@H](OC(=O)/C=C/C(=O)O)c1ccc2c(c1)OCCO2 [I-s, (E)-4-((1R,2R)-1-(2,3-dihydrobenzo[b][1,4]dioxin-6-yl)-2-octanamido-3-(pyrrolidin-1-yl)propoxy)-4-oxobut-2-enoic acid] | 64
CCCCCCCC(=O)N[C@H](CN1CCCC1)[C@H](OC(=O)CCCC(=O)O)c1ccc2c(c1)OCCO2 [I-t, 5-((1R,2R)-1-(2,3-dihydrobenzo[b][1,4]dioxin-6-yl)-2-octanamido-3-(pyrrolidin-1-yl)propoxy)-5-oxopentanoic acid] | 65
CCCCCCCC(=O)N[C@H](CN1CCCC1)[C@H](OC(=O)NC)c1ccc2c(c1)OCCO2 [I-u Hemitartrate salt, (1R,2R)-1-(2,3-dihydrobenzo[b][1,4]dioxin-6-yl)-2-octanamido-3-(pyrrolidin-1-yl)propyl methylcarbamate] | < 30
CCCCCCCC(=O)N[C@H](CN1CCCC1)[C@H](OC(=O)CN(C)C)c1ccc2c(c1)OCCO2 [I-w, (1R,2R)-1-(2,3-dihydrobenzo[b][1,4]dioxin-6-yl)-2-octanamido-3-(pyrrolidin-1-yl)propyl dimethylglycinate] | < 30
CCCCCCCC(=O)N[C@H](CN1CCCC1)[C@H](OC(=O)CCN1CCOCC1)c1ccc2c(c1)OCCO2 [I-x, (1R,2R)-1-(2,3-dihydrobenzo[b][1,4]dioxin-6-yl)-2-octanamido-3-(pyrrolidin-1-yl)propyl 3-morpholinopropanoate] | < 30
CCCCCCCC(=O)N[C@H](CN1CCCC1)[C@H](OC(=O)CC(=O)O)c1ccc2c(c1)OCCO2 [I-z, 3-((1R,2R)-1-(2,3-dihydrobenzo[b][1,4]dioxin-6-yl)-2-octanamido-3-(pyrrolidin-1-yl)propoxy)-3-oxopropanoic acid] | > 90
CCCCCCCC(=O)N[C@H](CN1CCCC1)[C@H](OC(=O)COCCOCCOC)c1ccc2c(c1)OCCO2 [II-a, (1R,2R)-1-(2,3-dihydrobenzo[b][1,4]dioxin-6-yl)-2-octanamido-3-(pyrrolidin-1-yl)propyl 2-(2-(2-methoxyethoxy)ethoxy)acetate] | < 30
CCCCCCCC(=O)N[C@H](CN1CCCC1)[C@H](OC(=O)CCOCCOCCN)c1ccc2c(c1)OCCO2 [II-b, (1R,2R)-1-(2,3-dihydrobenzo[b][1,4]dioxin-6-yl)-2-octanamido-3-(pyrrolidin-1-yl)propyl 3-(2-(2-aminoethoxy)ethoxy)propanoate] | > 90
CCCCCCCC(=O)N[C@H](CN1CCCC1)[C@H](OS(N)(=O)=O)c1ccc2c(c1)OCCO2 [IV-c, (1R,2R)-1-(2,3-dihydrobenzo[b][1,4]dioxin-6-yl)-2-octanamido-3-(pyrrolidin-1-yl)propyl sulfamate] | < 30
CCCCCCCC(=O)N[C@H](CN1CCCC1)[C@H](OS(=O)(=O)O)c1ccc2c(c1)OCCO2 [IV-d, (1R,2R)-1-(2,3-dihydrobenzo[b][1,4]dioxin-6-yl)-2-octanamido-3-(pyrrolidin-1-yl)propyl hydrogen sulfate] | > 90
